Experimental data: patent US10494384B2, “Urea peptoid boric acid compound, pharmaceutical composition thereof, preparation method therefor, and uses thereof” (Peking University, priority 2015, dated 2019)
Like-named read-outs stand apart in the source and are kept apart here.

Tests used:
[1] = target: T1, 20S proteasome extracted from rat liver (CT-L) (Rattus norvegicus, UniProt P18421+P28075); assay: inhibition of 20S proteasome, CT-L activity (fluorescent peptide); format: biochemical; conditions: rat liver 20S proteasome, 37° C., 1 h, read-out: inhibition rates (%) CT-L
T1 construct: 20S proteasome extracted from rat liver; from tissue; host or cells: rat liver
Method: (§1) 1 μg of 20S proteasome extracted from rat liver was incubated with a 100 μL solution containing various concentrations of the present compounds, 50 μM fluorescent peptides and 20 mM Tris-HCl at 37° C. for 1 h, respectively. […] 0.1% DMSO was used as a solvent control. Compared with the fluorescence of solvent control, an inhibition rate or IC50 value was calculated.

[2] = target: T2, 20S proteasome extracted from rat liver (PGPH) (Rattus norvegicus, UniProt P28073+Q9JHW0); assay: inhibition of 20S proteasome, PGPH activity (fluorescent peptide); format: biochemical; conditions: for inhibition at 0.2 µM / inhibition at 2 µM / inhibition at 20 µM: rat liver 20S proteasome, 37° C., 1 h, read-out: inhibition rates (%) PGPH
T2 construct: 20S proteasome extracted from rat liver; from tissue; host or cells: rat liver
Method: as §1

[3] = target: T3, 20S proteasome extracted from rat liver (T-L) (Rattus norvegicus, UniProt P40112+Q9JHW0); assay: inhibition of 20S proteasome, T-L activity (fluorescent peptide); format: biochemical; conditions: for inhibition at 0.2 µM / inhibition at 2 µM / inhibition at 20 µM: rat liver 20S proteasome, 37° C., 1 h, read-out: inhibition rates (%) T-L
T3 construct: 20S proteasome extracted from rat liver; from tissue; host or cells: rat liver
Method: as §1

[4] = test system: Hela, human cervical carcinoma; assay: preliminary anti-tumor screening in vitro, MTT method; format: cell-based; conditions: read-out: inhibition rates (%) Hela
In short: (§2)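 Inhibition rates measured at 0.1, 1 or 10 μM compound; cell growth read by MTT for Hela, SRB for BGC-823, MCF-7 and A549.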

[5] = test system: A549, human lung cancer; assay: preliminary anti-tumor screening in vitro, SRB method; format: cell-based; conditions: read-out: inhibition rates (%) A549
In short: as §2

[6] = test system: BGC-823, liver cancer; assay: as above; format: cell-based; conditions: Homo sapiens, read-out: inhibition rates (%) BGC-823
In short: as §2

[7] = test system: MCF-7, breast cancer; assay: as above; format: cell-based; conditions: Homo sapiens, read-out: inhibition rates (%) MCF-7; for inhibition at 0.1 µM: MCF7, 0.1 μM; for inhibition at 1 µM: MCF7, 1 μM; for inhibition at 10 µM: MCF7, 10 μM
In short: as §2

[8] = test system: HepG2 liver cancer cells; assay: anti-tumor activity in vitro (IC50), MTT; format: cell-based; conditions: Homo sapiens, 72 h
Method: (§3) Cancer cells were cultured in vitro. When cell growth reached logarithmic phase, the cells were collected and centrifuged at 1000 rpm for 5 min, before the supernate was removed and the cells were suspended in a moderate amount of medium, and then the concentration of cell was adjusted to 3.5×10^4/mL. The cell suspension was added into a 96-well plate with 100 μL per well and cultured in a cell incubator (37° C., 5% CO2) for 24 h. Then test drugs of different end concentrations were added, and the negative control group was added DMSO (end concentration was 0.5%), while each group afforded three repetitive holes. After cultivation for another 72 h in the cell incubator, a solution containing 5 mg/ml MTT (20 μL) was added into each well and the 96-well plate was placed at 37° C. for 3 h. To each well was added 150 μL DMSO, after oscillation in a shaking table for 5 min, the optical density (OD) values at 492 nm/620 nm were measured. IC50 values were calculated by Prism Graphpad statistical software.

[9] = test system: MGC803 stomach cancer cells; assay: anti-tumor activity in vitro (IC50), MTT; format: cell-based; conditions: Homo sapiens, MGC-803, MTT, 72 h
Method: as §3

[10] = test system: Hela; assay: anti-tumor activity in vitro (IC50), MTT; format: cell-based; conditions: Homo sapiens, 72 h
Method: as §3

[11] = liver cancer cells, read-out: IC50 (μM) HepG2
[12] = stomach cancer cells, read-out: IC50 (μM) MGC803

SMILES	inhibition at 0.2 µM [1] [%]	inhibition at 2 µM [1] [%]	inhibition at 20 µM [1] [%]	inhibition at 0.2 µM [2] [%]	inhibition at 2 µM [2] [%]	inhibition at 20 µM [2] [%]	inhibition at 0.2 µM [3] [%]	inhibition at 2 µM [3] [%]	inhibition at 20 µM [3] [%]	inhibition at 0.1 µM [4] [%]	inhibition at 1 µM [4] [%]	inhibition at 10 µM [4] [%]	inhibition at 0.1 µM [5] [%]	inhibition at 1 µM [5] [%]	inhibition at 10 µM [5] [%]	inhibition at 0.1 µM [6] [%]	inhibition at 1 µM [6] [%]	inhibition at 10 µM [6] [%]	inhibition at 0.1 µM [7] [%]	inhibition at 1 µM [7] [%]	also measured
COc1ccc(OC)c(CNC(=O)N[C@@H](Cc2ccccc2)C(=O)N[C@@H](CC(C)C)B(O)O)c1 [Example 18, N-L-phenylalanyl-L-leucine borate-N′-(2,5-dimethoxy-benzylamine)-urea]	82.1	96.7	98.3	9.81	68.8	97.1	4.99	56.9	91	37.8	39.6	46.5	44.3	63.5	66	41.4	46.6	50	25.8	37.5	inhibition at 10 µM [7]: 47.8%; IC50 [8, 11]: 0.0528 µM; IC50 [9, 12]: 0.0106 µM
COc1ccc(CNC(=O)N[C@@H](Cc2ccccc2)C(=O)N[C@@H](CC(C)C)B(O)O)cc1 [Example 15, N-L-phenylalanyl-L-leucine borate-N′-(p-methoxy-benzylamine)-urea]	86.3	95.9	98.3	8.45	89.4	96.8	5.72	53.5	90.4	39.3	44.5	51.8	2.63	11	31.1	7.38	32.6	38.4	47.7	65	inhibition at 10 µM [7]: 73.8%; IC50 [8, 11]: 0.25 µM; IC50 [9, 12]: 0.036 µM
CC(C)C[C@H](NC(=O)[C@H](Cc1ccccc1)NC(=O)NCc1ccccc1)B(O)O [Example 14, N-L-phenylalanyl-L-leucine borate-N′-benzylamine-urea]	82.1	96.1	98.9	6.46	84.6	97	5.04	57.8	88.4	40.3	43.2	53.5	2.67	13	33.3	12.9	33.5	38.2	51.9	67.8	inhibition at 10 µM [7]: 72.2%; IC50 [8, 11]: 0.0873 µM; IC50 [9, 12]: 0.0188 µM
CC(C)C[C@H](NC(=O)[C@H](Cc1ccccc1)NC(=O)N1CCc2ccccc2C1)B(O)O [Example 28, N-L-phenylalanyl-L-leucine borate-N′-1,2,3,4-tetrahydroisoquinoline-urea]																					IC50 [2]: 20 nM; IC50 [3]: 2380 nM; IC50 [10]: 532 nM; IC50 ([8]; read-out: IC50 HepG2): 0.00838 µM; IC50 [8, 11]: 0.0194 µM; IC50 ([9]; read-out: IC50 MGC803): 0.00498 µM; IC50 [9, 12]: 0.00396 µM

Continued, in another order:

inhibition at 0.2 µM [1] [%]	inhibition at 2 µM [1] [%]	inhibition at 20 µM [1] [%]	inhibition at 0.2 µM [2] [%]	inhibition at 2 µM [2] [%]	inhibition at 20 µM [2] [%]	inhibition at 0.2 µM [3] [%]	inhibition at 2 µM [3] [%]	inhibition at 20 µM [3] [%]	SMILES	inhibition at 0.1 µM [4] [%]	inhibition at 1 µM [4] [%]	inhibition at 10 µM [4] [%]	inhibition at 0.1 µM [5] [%]	inhibition at 1 µM [5] [%]	inhibition at 10 µM [5] [%]	inhibition at 0.1 µM [6] [%]	inhibition at 1 µM [6] [%]	inhibition at 10 µM [6] [%]	inhibition at 0.1 µM [7] [%]	inhibition at 1 µM [7] [%]	also measured
23.4	47.2	82.6	5.76	1.95	0.485	-16.5	-12.6	25.3	CC(C)C[C@H](NC(=O)N[C@@H](Cc1ccccc1)C(=O)Nc1cnccn1)B1OC2C[C@H]3C[C@H](C3(C)C)[C@@]2(C)O1 (stereo partly drawn) [Example 7, N-L-leucine borate pinanediol ester-N′-(pyrazin-2-ylcarbamoyl)-L-phenylalanine-urea]	0.48	5.11	14.9	-1.53	2.54	15.5	2.21	0.62	6.88	4.81	7.4	inhibition at 10 µM [7]: 11.7%; melting point: 93 to 95 °C
-17.8	-15.1	-3.13	2.67	3.15	9.71	-5.23	-1.52	0.968	CC(C)C[C@H](NC(=O)N[C@@H](Cc1ccccc1)C(=O)Nc1cccc(OCc2ccccc2)c1)B1OC2C[C@H]3C[C@H](C3(C)C)[C@@]2(C)O1 (stereo partly drawn) [Example 5, N-L-leucine borate pinanediol ester-N′-(3-benzyloxy-phenylcarbamoyl)-L-phenylalanine-urea]	7.42	10.3	21.8	3.25	10.3	30.3	5.47	3.19	8.66	6.37	8.84	inhibition at 10 µM [7]: 8.44%; melting point: 78 to 80 °C
91.7	97.3	98.3	16.9	82.3	97.2	18.2	69.1	90.7	COc1ccc(OC)c(CNC(=O)N[C@@H](Cc2ccccc2)C(=O)N[C@@H](CC(C)C)B2OC3CC4CC(C4(C)C)[C@]3(C)O2)c1 (stereo partly drawn) [Example 19, N-L-phenylalanyl-L-leucine borate pinanediol ester-N′-(2,5-dimethoxy-benzylamine)-urea]	39.8	44	55	53.1	65.6	76.1	43.7	46.6	57.2	23.4	38.1	inhibition at 10 µM [7]: 61.7%; melting point: 88 to 90 °C
-12.2	44.9	76.8	1.67	6.26	34.1	1.54	9	21.5	COc1ccc(NC(=O)[C@H](Cc2ccccc2)NC(=O)N[C@@H](CC(C)C)B2OC3C[C@H]4C[C@H](C4(C)C)[C@@]3(C)O2)cc1 (stereo partly drawn) [Example 9, N-L-leucine borate pinanediol ester-N′-(p-methoxy-phenylcarbamoyl)-L-phenylalanine-urea]	11.8	14.3	32.1	4.05	10.3	36.2	8.33	7.84	14.7	6.66	11.7	inhibition at 10 µM [7]: 13.8%; melting point: 78 to 80 °C
